Laboratory results taken from publication PMC9502374, “Enzymatic and Molecular Characterization of Anti-Leishmania Molecules That Differently Target Leishmania and Mammalian eIF4A Proteins, LieIF4A and eIF4AMus” (Molecules, 2022).
Several values for one entry are separate records, joined by “and”; a condition that tells them apart may be missing. Equal entries are not always repeated. Where two headings read alike, the source gives them in different places.

Columns and labels:
LieIF4A [1] = target: T1, LieIF4A (Leishmania infantum, UniProt A4HRK0); settings: cited from earlier work; for Ki: ATPase kinetics, calculated from data in ref 7; for IC50: read-out: LieIF4A ATPase assay IC50
T1 construct: His6; made in house; host or cells: Escherichia coli Rosetta
T1 sequence (A4HRK0 1-403): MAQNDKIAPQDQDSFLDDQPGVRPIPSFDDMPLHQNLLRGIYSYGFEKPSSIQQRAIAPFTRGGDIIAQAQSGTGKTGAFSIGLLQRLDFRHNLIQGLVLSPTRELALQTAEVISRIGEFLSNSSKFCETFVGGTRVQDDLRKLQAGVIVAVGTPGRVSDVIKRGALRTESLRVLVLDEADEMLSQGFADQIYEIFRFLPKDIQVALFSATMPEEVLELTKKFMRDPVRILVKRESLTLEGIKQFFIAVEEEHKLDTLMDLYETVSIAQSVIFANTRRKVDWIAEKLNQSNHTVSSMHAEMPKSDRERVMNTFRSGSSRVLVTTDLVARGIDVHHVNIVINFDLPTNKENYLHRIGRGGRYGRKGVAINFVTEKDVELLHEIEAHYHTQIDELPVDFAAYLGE

[2] = system: intramacrophage amastigotes of L. donovani (LV9); parameters: method as in PMID 16949702; settings: cited from earlier work
eIF4AMus [3] = target: T2, eIF4AMus (Mus musculus, UniProt P60843); parameters: method as in PMID 29346371; settings: ATPase kinetics, calculated from data in ref 7, cited from earlier work
T2 construct: His6; made in house; host or cells: Escherichia coli Rosetta

[4] = system: L. infantum promastigotes (LV50); test: MTT viability assay on promastigotes; format: cell-based, Leishmania infantum; settings: for IC50: Leishmania infantum, stationary phase promastigotes, 24 h
Method: The MON1 L. infantum laboratory strain LV50 originating from a visceral leishmaniasis case (Laboratory of Molecular Epidemiology and Experimental Pathology, Institut Pasteur de Tunis) was used to test the effect of the chemical compounds. Promastigote cultures were inoculated in RPMI-1640 media supplemented with 2 mM L-glutamine, 100 U/mL penicillin, 100 U/mL streptomycin and 10% (v/v) heat-inactivated fetal bovine serum at 22 °C. Promastigotes were collected at the beginning of the stationary phase (day 5), counted, centrifuged and seeded at 10^6/mL in 10 mL of complete media.
The effect of the chemical compounds on the viability of L. infantum promastigotes was evaluated by a colorimetric MTT (3-(4,5-dimethylthiazol-2yl)-2,5-diphenyl tetrazolium bromide) 96-well plate assay as previously described in [7]. This test consisted of a reduction of tetrazolium salt to a […] crystal (blue formazan) by the succinate dehydrogenase activity of mitochondria in living cells, which can be quantified by spectrophotometry. Briefly, 90 μL of LV50 promastigotes harvested from the stationary growth phase of 10^6/mL culture were added to a 96-well culture plate with various concentrations of the selected compounds to obtain a final volume of 100 µL, compound concentrations of 1.5–100 μM, and a final concentration of 1% DMSO per well. Plates were incubated at 25 °C for 24 h.
(§1) Mock-treated THP-1-derived macrophages and promastigotes (1% DMSO) were used as controls. After 24 h of incubation, MTT solution was added at 1 mg/mL to each well and incubated at the appropriate cell temperatures for 4 h. Then, 150 μL of DMSO was added to each well to dissolve the blue formazan, and the optical density (OD) was measured at 560 nm with a microplate reader (MULTISCAN, Labsystems, Thermo Fisher Scientific, Ratastie, Finland).
The promastigotes and THP-1-derived macrophage viabilities were expressed as the percentage of the viable promastigotes or cells in treated conditions relative to the 1% DMSO cultures, as previously described in [7]. […]

[5] = system: THP-1-derived macrophages; test: MTT cytotoxicity assay on macrophages; format: cell-based, human; settings: MTT, 24 h; read-out: Uninfected THP-1-Derived Macrophages CC50
Method: (§2) The human myelomonocytic cell line, THP-1, was ordered from the American Type Culture Collection (ATCC, TIB-202). Cells were maintained in RPMI 1640/Glutamax-I media (Gibco BRL, Bleiswijk, The Netherlands) supplemented with 10% heat-inactivated fetal calf serum (Gibco, Bleiswijk, The Netherlands) plus penicillin G (100 U/mL) and streptomycin ([…]). THP-1 cells were differentiated to macrophages after their treatment with 20 ng/mL phorbol […] (PMA) (Sigma, St. Louis, MO, USA) for 48 h at 37 °C, 5% CO2. The viability of THP-1 mature macrophage-like cells was determined to be >97% by the Trypan blue dye exclusion assay.
(§3) For the cytotoxicity assay, we used the THP-1-derived macrophages (50,000 cells/well) seeded in 96-well plates and treated with serial concentrations of compounds at the same conditions as for the promastigotes for 24 h.
as §1
(§4) The promastigotes and THP-1-derived macrophage viabilities were expressed as the percentage of the viable promastigotes or cells in treated conditions relative to the 1% DMSO cultures, as previously described in [7]. The half maximal inhibitory concentration (IC50) and 50% cytotoxic concentrations (CC50) values were calculated for all the tested compounds by interpolation.

[6] = MTT cytotoxicity assay on macrophages; format: cell-based, human; settings: human
Method: as §2, §3, §1, §4

[7] = system: L. infantum promastigotes (LV50); parameters: method as in PMID 29346371; settings: cited from earlier work
LieIF4A [8] = target: T1, LieIF4A; test: RNA-dependent ATPase assay (Malachite green), LieIF4A; format: biochemical
Method: (§5) A colorimetric assay was used to measure the phosphate released during ATP hydrolysis based on Malachite green, as previously described in [8, 9]. Reactions were performed at 37 °C in 96 well microtiter plates in a final volume of 50 μL. The reaction buffer contained 50 mM potassium acetate, 20 mM MES pH 6, 2 mM dithiothreitol (DTT), 0.1 mg/mL BSA and various concentrations of whole yeast RNA (Type XI-C, Sigma-Aldrich, St. Louis, MO, USA). 5 mM and 1 mM magnesium acetate were added to the LieIF4A and eIF4AMus reactions, respectively. Reactions were initiated by adding ATP; when not noted otherwise, the ATP concentration used was 1 mM. Reactions were stopped after various times with ethylenediaminetetraacetic acid (EDTA, final concentration 60 mM). The absorption at 630 nm was converted to phosphate concentration by a reference curve generated from a dilution series of a known phosphate concentration (0.1 mM Pi standard; Innova Biosciences, Cambridge, UK). Reaction velocities were determined by a linear regression fit of the phosphate generated against time. Only the initial linear phases of the curves were used. Velocities were determined for three independent experiments for each reaction condition. The Michaelis –Menten (Km) and the inhibition kinetics (Ki) constants were obtained by nonlinear regression using GraphPad Prism 8 (GraphPad Software).

eIF4AMus [9] = target: T2, eIF4AMus; test: RNA-dependent ATPase assay (Malachite green), eIF4AMus; format: biochemical
Method: as §5

[10] = system: L. infantum promastigotes; parameters: method as in PMID 21417924; settings: cited from earlier work
[11] = system: THP-1-derived macrophages; settings: cited from earlier work
[12] = L. infantum, read-out: Anti-leishmanial activity IC50

T2 sequence (P60843 whole entry): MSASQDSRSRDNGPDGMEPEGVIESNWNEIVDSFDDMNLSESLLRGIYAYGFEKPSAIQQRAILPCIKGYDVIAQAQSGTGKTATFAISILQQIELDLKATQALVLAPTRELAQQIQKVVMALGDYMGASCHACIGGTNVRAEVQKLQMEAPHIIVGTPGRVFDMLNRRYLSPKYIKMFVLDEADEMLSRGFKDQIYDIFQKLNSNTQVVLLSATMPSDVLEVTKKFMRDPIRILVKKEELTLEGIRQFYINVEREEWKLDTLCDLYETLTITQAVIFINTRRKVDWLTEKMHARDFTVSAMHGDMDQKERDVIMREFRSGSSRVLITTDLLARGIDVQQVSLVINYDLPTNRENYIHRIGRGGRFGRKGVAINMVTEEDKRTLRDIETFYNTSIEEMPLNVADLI

## Nc1ncnc2c1ncn2[C@@H]1O[C@H](COP(=O)(O)OP(=O)(O)OP(=O)(O)O)[C@@H](O)[C@H]1O [ATP]
LieIF4A [1]; saturating total yeast RNA, control DMSO, no test compound, read-out: Km (ATP hydrolysis)
  Km: 150 ± 20 µM

## CC(C)CCC[C@@H](C)[C@H]1CC[C@H]2[C@@H]3[C@@H](CN)C=C4C[C@@H](O)CC[C@]4(C)[C@H]3CC[C@]12C [7-β-aminomethylcholesterol]
[2]
  IC50: 1.3 µM

## CC(C)CCC[C@@H](C)[C@H]1CC[C@H]2[C@@H]3CC(=O)[C@H]4C[C@@H](O)CC[C@]4(C)[C@H]3CC[C@]12C [6-ketocholestanol]
LieIF4A [1]
  Ki: 316 ± 80.7 µM
  IC50: > 1000 µM
eIF4AMus [3]
  Ki: 485 ± 94.5 µM
[4]
  IC50: 37 ± 6.6 µM
[5]
  CC50: 76.9 ± 2.1 µM
[6]; THP-1-derived macrophages (PMA-differentiated, uninfected), MTT, 24 h, read-out: Uninfected THP-1-Derived Macrophages CC50
  CC50 at 24 h: 77 µM
[7]; [12]
  IC50: 39.1 µM

## 7-α/β-aminocholesterol
[2]
  IC50: 1.3 µM

## CC(C)CCC[C@@H](C)[C@H]1CC[C@H]2[C@@H]3[C@H](N)C=C4C[C@@H](O)CC[C@]4(C)[C@H]3CC[C@]12C [7-α-aminocholesterol]
LieIF4A [8]; Ki eIF4AMus / Ki LieIF4A
  Higher affinity (Ki) for LieIF4A than for eIF4AMus: ~ 9.4 fold
LieIF4A [8]; Ki, ATPase kinetics, saturating yRNA
  Ki: 8.6 µM and 8.57 µM
[4]
  IC50: 2.29 ± 0.4 µM
[6]; Uninfected THP-1-Derived Macrophages CC50
  CC50 at 24 h: 17.5 ± 3.4 µM
[2]
  IC50: 1.31 µM
eIF4AMus [9]; ATPase kinetics, saturating yRNA
  Ki: 80.5 µM

## COc1ccc([C@@]23Oc4cc(OC)cc(OC)c4[C@]2(O)[C@H](O)[C@H](C(=O)N(C)C)[C@H]3c2ccccc2)cc1 [Rocaglamide A]
[10]
  EC50: 16.5 µM
LieIF4A [8]; 50 µM rocaglamide A vs no compound, 1 ng/µL yRNA
  Increase of ATPase activity: 1.7 fold
LieIF4A [8]; 50 µM rocaglamide A, 1 ng/µL yRNA
  Relative activity (to maximum velocity of eIF4AMus without rocaglamide A): 0.80 ± 0.07
LieIF4A [8]; 50 µM rocaglamide A, 1 ng/µL yRNA vs 340 ng/µL yRNA
  ATPase activity with compound relative to saturating RNA without compound (less): 2.3 fold
LieIF4A [8]; 50 µM rocaglamide A, 1 ng/µL yRNA, 1 mM ATP, 820 nM protein, 10% DMSO
  V (ATPase reaction velocity): 0.77 ± 0.07 µM/min
eIF4AMus [9]; 50 µM rocaglamide A vs no compound, 55 ng/µL yRNA
  Increase of ATPase activity: 6.2 fold
eIF4AMus [9]; 50 µM rocaglamide A, 55 ng/µL yRNA
  Relative activity (to maximum velocity of eIF4AMus without rocaglamide A): 2.65 ± 0.03
eIF4AMus [9]; 50 µM rocaglamide A, 55 ng/µL yRNA vs 340 ng/µL yRNA
  ATPase activity with compound relative to saturating RNA without compound (more): ~2.7 fold
eIF4AMus [9]; 50 µM rocaglamide A, 55 ng/µL yRNA, 1 mM ATP, 1200 nM protein, 10% DMSO
  V (ATPase reaction velocity): 2.55 ± 0.03 µM/min

## CC(C)CCC[C@@H](C)[C@H]1CC[C@H]2[C@@H]3C[C@H](N)[C@H]4C[C@@H](O)CC[C@]4(C)[C@H]3CC[C@]12C [6-α-aminocholestanol]
LieIF4A [1]
  Ki: 19.5 ± 3.27 µM
  IC50: 160 µM
[11]
  CC50: 35.2 ± 1.3 µM
eIF4AMus [3]; read-out: Ki
  Ki: 20.2 µM
[7]; [12]
  IC50: 3.6 µM
[7]; MTT, measured using data in ref 7, read-out: Promastigotes LV50 IC50
  IC50: 3.64 ± 0.1 µM

## CC(C)CCC[C@@H](C)[C@H]1CC[C@H]2[C@@H]3CC=C4C[C@@H](O)CC[C@]4(C)[C@H]3CC[C@]12C [Cholesterol]
LieIF4A [8]; 300 µM compound
  Effect on ATPase kinetics: no effect
[4]; 24 h exposure
  Effect on promastigotes viability: no effect
eIF4AMus [9]; 300 µM compound
  Effect on ATPase kinetics: no effect
